# Reference: US20090054523A1, “Use of a Fatty Acid Composition Containing DHA for the Production of a Medical Product or a Food Stuff for the Treatment of Amyloidos-Related Diseases” (priority 2005, published 2009)
# System: secondary amyloidosis (spleen amyloid)
# Assay: Secondary amyloidosis induced by silver nitrate injections, spleen amyloid by Congo red
# Format: in vivo, Female NMRI mice
# Procedure: Female NMRI mice were injected once a week subcutaneously with 0.3 ml of a 1% silver nitrate solution for 25 weeks. The animals were fed high fat diet containing mainly sunflower oil with a fat content of 55% of total daily calories. Three groups each consisting of 6 animals were given different omega-3 fatty acid concentrates (intervention group) or standard olive oil containing about 78% oleic acid (oleic acid group). In the intervention groups 15% of the fat content was exchanged with either 97% docosahexaenoic acid (DHA group) or EPAX1050TG containing 10% of EPA and 50% of DHA (EPAX group).
# After study completion the mice were sacrificed and spleens were collected.
# The air-dried smear material and 10-μm-thick sections from the formalin fixed material were stained for amyloid with specific dye alkaline Congo red. The slides were examined in cross-polarized light for bright green birefringence, specific for amyloid. Evaluation of the material was performed on coded slides.
smiles,measurement,setting,value
"CC/C=C\C/C=C\C/C=C\C/C=C\C/C=C\C/C=C\CCC(=O)O [DHA, (all-Z omega-3)-4,7,10,13,16,19-docosahexaenoic acid]",amyloid appeared in the spleen,"25 weeks of weekly s.c. silver nitrate, 15% of fat content exchanged",one out of six
same,animals that developed amyloid after silver nitrate injections,after 25 weeks of treatment,one
same,animals with amyloid,"spleen, 25 weeks of weekly s.c. silver nitrate, 15% of tot. fat of high fat diet exchanged",1/6 animals
